In patent US8815882B2, “Pyrazole aminopyrimidine derivatives as LRRK2 modulators” (Genentech, Inc., priority 2010, dated 2014):

The molecules below were run against T1, LRRK2 (Homo sapiens, UniProt Q5S007, G2019S) (assay: In Vitro LRRK2 Assay (LabChip 3000, fluorescently-labeled peptide substrate, ATP)). Conditions: Table 9; LRRK2 Ki (micromolar); read-out: LRRK2 Ki (KI).
T1 construct: purchased Invitrogen PV4882 (lot 567054A)
Format: biochemical
In short: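 Read-out was LabChip capillary electrophoresis, resolving phospho- from non-phospho-peptide by fluorescence intensity. The kinase reaction combined enzyme, ATP, test compound and labeled peptide (4 μM working dilution) for 2 h in darkness before stop solution. Values were reported as Ki, from a tight-binding model with Et, S and Km, or as IC50 or percent inhibition.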

T1 sequence (Q5S007 whole entry G2019S): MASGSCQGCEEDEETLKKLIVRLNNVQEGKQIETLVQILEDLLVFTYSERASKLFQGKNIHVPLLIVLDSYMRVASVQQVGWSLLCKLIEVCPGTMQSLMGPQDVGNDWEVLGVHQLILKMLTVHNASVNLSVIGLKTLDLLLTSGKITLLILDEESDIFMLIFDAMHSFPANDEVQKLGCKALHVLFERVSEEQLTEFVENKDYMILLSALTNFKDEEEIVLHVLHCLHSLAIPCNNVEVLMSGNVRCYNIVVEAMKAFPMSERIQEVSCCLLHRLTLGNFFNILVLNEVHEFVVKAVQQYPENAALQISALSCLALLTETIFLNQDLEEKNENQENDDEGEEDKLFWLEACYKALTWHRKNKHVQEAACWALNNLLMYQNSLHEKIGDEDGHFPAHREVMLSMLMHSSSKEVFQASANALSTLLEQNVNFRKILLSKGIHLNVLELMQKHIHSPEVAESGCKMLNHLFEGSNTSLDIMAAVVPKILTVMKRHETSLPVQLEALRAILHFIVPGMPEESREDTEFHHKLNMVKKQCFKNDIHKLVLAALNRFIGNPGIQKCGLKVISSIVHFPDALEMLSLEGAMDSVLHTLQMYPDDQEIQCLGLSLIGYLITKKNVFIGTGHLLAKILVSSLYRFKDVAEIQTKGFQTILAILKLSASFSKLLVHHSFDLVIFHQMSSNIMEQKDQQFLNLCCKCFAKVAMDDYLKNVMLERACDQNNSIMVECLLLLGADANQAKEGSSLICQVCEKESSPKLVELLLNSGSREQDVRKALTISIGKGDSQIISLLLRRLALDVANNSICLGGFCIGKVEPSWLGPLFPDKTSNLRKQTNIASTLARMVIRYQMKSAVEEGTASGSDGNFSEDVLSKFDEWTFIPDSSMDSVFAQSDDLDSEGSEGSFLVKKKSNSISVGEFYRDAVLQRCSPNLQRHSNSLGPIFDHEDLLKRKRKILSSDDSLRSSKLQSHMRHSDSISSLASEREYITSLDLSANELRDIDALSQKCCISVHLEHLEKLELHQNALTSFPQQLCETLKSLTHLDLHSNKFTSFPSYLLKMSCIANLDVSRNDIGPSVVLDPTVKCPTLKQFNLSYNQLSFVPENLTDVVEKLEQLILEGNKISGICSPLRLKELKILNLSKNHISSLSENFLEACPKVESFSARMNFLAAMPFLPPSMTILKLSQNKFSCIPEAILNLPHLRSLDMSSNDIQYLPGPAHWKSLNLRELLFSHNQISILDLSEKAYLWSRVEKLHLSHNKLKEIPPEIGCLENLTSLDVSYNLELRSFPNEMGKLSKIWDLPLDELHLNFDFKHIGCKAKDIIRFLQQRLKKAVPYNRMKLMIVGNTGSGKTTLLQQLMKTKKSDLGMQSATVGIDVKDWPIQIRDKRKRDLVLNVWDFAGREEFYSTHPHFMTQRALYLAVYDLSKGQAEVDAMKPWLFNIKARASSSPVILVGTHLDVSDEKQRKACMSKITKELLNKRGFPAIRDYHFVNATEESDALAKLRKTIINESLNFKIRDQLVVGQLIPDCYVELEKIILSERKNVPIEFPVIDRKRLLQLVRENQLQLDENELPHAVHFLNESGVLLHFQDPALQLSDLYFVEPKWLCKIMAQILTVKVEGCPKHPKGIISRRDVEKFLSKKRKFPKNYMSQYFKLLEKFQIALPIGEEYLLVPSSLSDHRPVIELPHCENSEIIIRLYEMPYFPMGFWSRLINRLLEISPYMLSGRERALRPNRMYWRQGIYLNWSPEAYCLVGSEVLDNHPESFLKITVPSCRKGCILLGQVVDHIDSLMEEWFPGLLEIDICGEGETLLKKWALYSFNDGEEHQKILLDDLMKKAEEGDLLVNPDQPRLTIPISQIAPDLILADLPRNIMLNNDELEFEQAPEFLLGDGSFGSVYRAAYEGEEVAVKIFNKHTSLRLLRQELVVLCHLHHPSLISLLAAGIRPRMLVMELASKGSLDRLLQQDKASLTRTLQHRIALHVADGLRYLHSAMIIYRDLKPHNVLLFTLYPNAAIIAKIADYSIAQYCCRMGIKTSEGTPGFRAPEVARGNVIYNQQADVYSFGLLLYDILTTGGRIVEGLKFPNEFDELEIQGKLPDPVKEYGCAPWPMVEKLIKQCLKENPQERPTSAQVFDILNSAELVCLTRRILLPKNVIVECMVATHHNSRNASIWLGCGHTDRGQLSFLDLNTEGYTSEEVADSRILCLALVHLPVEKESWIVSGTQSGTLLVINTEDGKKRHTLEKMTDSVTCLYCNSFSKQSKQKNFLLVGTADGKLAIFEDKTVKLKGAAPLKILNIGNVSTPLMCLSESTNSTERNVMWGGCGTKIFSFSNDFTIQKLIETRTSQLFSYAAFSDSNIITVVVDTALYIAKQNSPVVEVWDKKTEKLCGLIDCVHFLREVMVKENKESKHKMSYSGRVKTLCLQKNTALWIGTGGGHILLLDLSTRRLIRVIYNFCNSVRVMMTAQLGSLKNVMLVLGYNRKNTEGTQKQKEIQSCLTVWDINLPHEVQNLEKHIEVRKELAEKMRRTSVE

Ki [nM] | Structure (SMILES)
1.3 | CNc1nc(Nc2cnn(-c3ccccc3)c2C)ncc1C#N [Example 360, 2-(5-methyl-1-phenyl-1H-pyrazol-4-ylamino)-4-(methylamino) pyrimidine-5-carbonitrile]
27.5 | Cc1c(Nc2ncc(C#N)c(NCC(F)(F)F)n2)cnn1C [Example 376, 2-(1,5-dimethyl-1H-pyrazol-4-ylamino)-4-(2,2,2-trifluoroethylamino) pyrimidine-5-carbonitrile]
12.7 | CCNc1nc(Nc2cnn(C)c2C)ncc1C#N [Example 385, 2-(1,5-Dimethyl-1H-pyrazol-4-ylamino)-4-ethylamino-pyrimidine-5-carbonitrile]
2.5 | CNc1nc(Nc2cnn(-c3ccc(Cl)cc3)c2C)ncc1C#N [Example 369, 2-(1-(4-chlorophenyl)-5-methyl-H-pyrazol-4-ylamino)-4-(methylamino) pyrimidine-5-carbonitrile]
66 | Cc1nn(C2COC2)cc1Nc1ncc(C#N)c(NCC(F)(F)F)n1 [Example 382, 2-(3-methyl-1-(oxetan-3-yl)-1H-pyrazol-4-ylamino)-4-(2,2,2-trifluoroethylamino) pyrimidine-5-carbonitrile]

Same assay, conditions: Table 10; LRRK2 Ki (micromolar); read-out: LRRK2 Ki (KI)

Ki [nM] | Structure (SMILES)
12.2 | COC(=O)C(C)(C)n1ncc(Nc2ncc(Cl)c(OC)n2)c1C [Example 434, 2-[4-(5-Chloro-4-methoxy-pyrimidin-2-ylamino)-5-methyl-pyrazol-1-yl]-2-methyl-propionic acid methyl ester]

Same assay, conditions: read-out: LRRK2 Ki (KI), Table 7

Ki [nM] | Structure (SMILES)
14 | COc1nc(Nc2cn(C(C)(C)C#N)nc2C)ncc1Cl [Example 73, 2-(4-(5-chloro-4-methoxy-pyrimidin-2-ylamino)-3-methyl-1H-pyrazol-1-yl)-2-methylpropane-nitrile]
66 | COc1nc(Nc2cn(C3CCN(C(=O)C4(C)CC4)CC3)nc2C)ncc1Cl [Example 66, (4-(4-(5-chloro-4-methoxy-pyrimidin-2-ylamino)-3-methyl-1H-pyrazol-1-yl)piperidin-1-yl)(1-methylcyclo-propyl) methanone]
19 | COCCn1ncc(Nc2ncc(Cl)c(OC)n2)c1C [Example 20, 5-chloro-4-methoxy-N-(1-(2-methoxyethyl)-5-methyl-1H-pyrazol-4-yl)pyrimidin-2-amine]
9.4 | CCNc1nc(Nc2cn(C3CCN(CC4OCCO4)CC3)nc2C)ncc1C(F)(F)F [Example 88, N^2-[1-(1-[1,3]Dioxolan-2-ylmethyl-piperidin-4-yl)-3-methyl-1H-pyrazol-4-yl]-N^4-ethyl-5-trifluoromethyl-pyrimidine-2,4-diamine]
39 | Cc1c(Nc2ncc(Cl)c(OC3COC3)n2)cnn1C [Example 62, 5-chloro-N-(1,5-dimethyl-1H-pyrazol-4-yl)-4-(oxetan-3-yloxy)pyrimidin-2-amine]
2.2 | COc1nc(Nc2cn(-c3ccc(C(=O)N(C)C)cc3)nc2C)ncc1Cl [Example 81, 4-[4-(5-Chloro-4-methoxy-pyrimidin-2-ylamino)-3-methyl-pyrazol-1-yl]-N,N-dimethyl-benzamide]

Same assay, conditions: read-out: LRRK2 Ki (KI), Table 8

Ki [nM] | Structure (SMILES)
0.4 | Cc1nn(S(C)(=O)=O)cc1Nc1ncc(C(F)(F)F)c(NC2CC2)n1 [Example 300, N4-Cyclopropyl-N2-(1-methanesulfonyl-3-methyl-1H-pyrazol-4-yl)-5-trifluoromethyl-pyrimidine-2,4-diamine]
2.3 | CNc1nc(Nc2cn(C(C)(C)c3nnc[nH]3)nc2C)ncc1C(F)(F)F [Example 332, N4-Methyl-N2-{3-methyl-1-[1-methyl-1-(4H-[1,2,4]triazol-3-yl)-ethyl]-1H-pyrazol-4-yl}-5-trifluoromethyl-pyrimidine-2,4-diamine]
18.8 | CNc1nc(Nc2cnn(C[C@H](C)OC)c2C)ncc1C(F)(F)F [Example 187, (S)-N2-(1-(2-methoxypropyl)-5-methyl-1H-pyrazol-4-yl)-N4-methyl-5-(trifluoromethyl) pyrimidine-2,4-diamine]
7.6 | CCNc1nc(Nc2cn(C(C)(C)c3nncn3C)nc2C)ncc1C(F)(F)F [Example 337, N4-ethyl-N2-(3-methyl-1-(2-(4-methyl-4H-1,2,4-triazol-3-yl)propan-2-yl)-1H-pyrazol-4-yl)-5-(trifluoromethyl) pyrimidine-2,4-diamine]
7.2 | CNc1nc(Nc2cn(CC3(C)COC3)nc2C)ncc1C(F)(F)F [Example 118, N4-methyl-N2-(3-methyl-1-((3-methyloxetan-3-yl)methyl)-1H-pyrazol-4-yl)-5-(trifluoromethyl) pyrimidine-2,4-diamine]
0.3 | CNc1nc(Nc2cn(-c3ccc(S(=O)(=O)C4CC4)cc3)nc2C)ncc1C(F)(F)F [Example 161, N2-(1-(4-(cyclopropyl-sulfonyl)phenyl)-3-methyl-1H-pyrazol-4-yl)-N4-methyl-5-(trifluoromethyl) pyrimidine-2,4-diamine]
6.7 | CNc1nc(Nc2cn(-c3ccccn3)nc2C)ncc1C(F)(F)F [Example 117, N4-methyl-N2-(3-methyl-1-(pyridin-2-yl)-1H-pyrazol-4-yl)-5-(trifluoromethyl) pyrimidine-2,4-diamine]
41 | CNc1nc(Nc2nn(C3CCN(C)CC3)cc2C)ncc1C(F)(F)F [Example 141, N4-methyl-N2-(4-methyl-1-(1-methylpiperidin-4-yl)-1H-pyrazol-3-yl)-5-(trifluoromethyl) pyrimidine-2,4-diamine]
2.2 | CNc1nc(Nc2cnn(Cc3ccncn3)c2C)ncc1C(F)(F)F [Example 323, N4-Methyl-N2-(5-methyl-1-pyrimidin-4-ylmethyl-1H-pyrazol-4-yl)-5-trifluoromethyl-pyrimidine-2,4-diamine]
0.3 | CCCCn1ncc(Nc2ncc(C(F)(F)F)c(NC)n2)c1C [Example 127, N2-(1-butyl-5-methyl-1H-pyrazol-4-yl)-N4-methyl-5-(trifluoromethyl) pyrimidine-2,4-diamine]
42 | CNc1nc(Nc2cnn(C(C)(C)COC)c2C)ncc1C(F)(F)F [Example 203, N2-(1-(1-methoxy-2-methylpropan-2-yl)-5-methyl-1H-pyrazol-4-yl)-N4-methyl-5-(trifluoromethyl) pyrimidine-2,4-diamine]
2.2 | CNc1nc(Nc2cn(C3CCN(C4COC4)CC3F)nc2C)ncc1C(F)(F)F (stereo not drawn) [Example 199, N2-(1-(3-fluoro-1-(oxetan-3-yl)piperidin-4-yl)-3-methyl-1H-pyrazol-4-yl)-N4-methyl-5-(trifluoromethyl) pyrimidine-2,4-diamine]
1.5 | CNc1nc(Nc2cnn(Cc3cccc(C)n3)c2C)ncc1C(F)(F)F [Example 314, N4-Methyl-N2-[5-methyl-1-(6-methyl-pyridin-2-ylmethyl)-1H-pyrazol-4-yl]-5-trifluoromethyl-pyrimidine-2,4-diamine]
5.1 | CNc1nc(Nc2cn(CC(C)(C)O)nc2C2CC2)ncc1C(F)(F)F [Example 235, 1-(3-cyclopropyl-4-(4-(methylamino)-5-(trifluoromethyl)pyrimidin-2-ylamino)-1H-pyrazol-1-yl)-2-methylpropan-2-ol]
0.3 | CCNc1nc(Nc2cn(C(C)(C)c3ncn(C)n3)nc2C)ncc1C(F)(F)F [Example 338, N4-ethyl-N2-(3-methyl-1-(2-(1-methyl-1H-1,2,4-triazol-3-yl)propan-2-yl)-1H-pyrazol-4-yl)-5-(trifluoromethyl) pyrimidine-2,4-diamine]
0.8 | CCNc1nc(Nc2cnn(C3CCN(C(=O)C(C)C)CC3)c2C)ncc1C(F)(F)F [Example 267, 1-{4-[4-(4-Ethylamino-5-trifluoromethyl-pyrimidin-2-ylamino)-5-methyl-pyrazol-1-yl]-piperidin-1-yl}-2-methyl-propan-1-one]
1.1 | CNc1nc(Nc2cnn(C(C)C)c2Cl)ncc1C(F)(F)F [Example 138, N2-(5-chloro-1-isopropyl-1H-pyrazol-4-yl)-N4-methyl-5-(trifluoromethyl) pyrimidine-2,4-diamine]
6.3 | CNc1nc(Nc2cnn(C[C@@H](C)OC)c2C)ncc1C(F)(F)F [Example 192, (R)-N2-(1-(2-methoxypropyl)-5-methyl-1H-pyrazol-4-yl)-N4-methyl-5-(trifluoromethyl) pyrimidine-2,4-diamine]
2.9 | CNc1nc(Nc2cn(S(C)(=O)=O)nc2C)ncc1C(F)(F)F [Example 102, N4-methyl-N2-(3-methyl-1-(methylsulfonyl)-1H-pyrazol-4-yl)-5-(trifluoromethyl) pyrimidine-2,4-diamine]
6.9 | CNc1nc(Nc2cn(C(C)(C)COC)nc2C)ncc1C(F)(F)F [Example 190, N2-(1-(1-methoxy-2-methylpropan-2-yl)-3-methyl-1H-pyrazol-4-yl)-N4-methyl-5-(trifluoromethyl) pyrimidine-2,4-diamine]
6.8 | CNc1nc(Nc2cnn(C3CCN(C(=O)C(C)C)CC3)c2C)ncc1C(F)(F)F [Example 175, 2-methyl-1-(4-(5-methyl-4-(4-(methylamino)-5-(trifluoromethyl)pyrimidin-2-ylamino)-1H-pyrazol-1-yl)piperidin-1-yl)propan-1-one]
5.6 | CCCn1ncc(Nc2ncc(C(F)(F)F)c(NC)n2)c1C [Example 119, N4-methyl-N2-(5-methyl-1-propyl-1H-pyrazol-4-yl)-5-(trifluoromethyl) pyrimidine-2,4-diamine]
8.5 | CCNc1nc(Nc2cn([C@H]3CCCN(C4COC4)C3)nc2C)ncc1C(F)(F)F [Example 308, N4-Ethyl-N2-[3-methyl-1-((S)-1-oxetan-3-yl-piperidin-3-yl)-1H-pyrazol-4-yl]-5-trifluoromethyl-pyrimidine-2,4-diamine]
0.3 | CCNc1nc(Nc2cn(C(C)(C)c3ccnn3C)nc2C)ncc1C(F)(F)F [Example 343, N4-ethyl-N2-(3-methyl-1-(2-(1-methyl-1H-pyrazol-5-yl)propan-2-yl)-1H-pyrazol-4-yl)-5-(trifluoromethyl) pyrimidine-2,4-diamine]
